For the test, the system named is LoVo colorectal cancer cells. As to the kind of experiment: in vitro growth / proliferation of LoVo colon cancer cells. In kind it is cell-based, human. The settings on record: for antineoplastic activity of peaks and peak combinations: 450 uM, FIG. 14. How it is done:
FIG. 2. […] The extracts were prepared with water, then dried and dissolved in methanol. Control contains no extract added and the methanol control is a control containing 5% methanol as was used to dissolve the dried aqueous extract. FIG. 3. Effects of ethyl acetate (a and b) and methanol (c and d) extracts at to concentration of 75 ug/ml on LoVo colorectal cancer cells (a and c) and we38 human fetal fibroblast cells (b and d). FIG. 4. […] An assay to test the biological activity of individual peaks was carried out using the same antineoplastic test already evaluated for the whole extract. The main purpose of these studies was to identify who are the peaks with the highest biological activity and to determine a synergistic effect among the different compounds.

Here are results for two molecules from patent publication US20110177178A1, “Extracts of Deschampsia antarctica Desv. with antineoplastic activity” (Uxmal S.A., Chile, priority 2007, published 2011).

The structures appear in SMILES notation.

Regarding `O=c1cc(-c2ccc(O)c(O)c2)oc2c(C3OC(CO)C(O)C(O)C3OC3OCC(O)C(O)C3O)c(O)cc(O)c12` (single isomer, unassigned; peak 1) [peak 1, 2″-O-β-O arabinopyranoside orientin (orientin traces)], the “antineoplastic activity of peaks and peak combinations” value was “only a weak antineoplastic activity”.

Consider `COc1cc(O)c2c(=O)cc(-c3ccc(O)c(O)c3)oc2c1C1OC(CO)C(O)C(O)C1OC1OCC(O)C(O)C1O` (single isomer, unassigned; peak 2) [peak 2, isowertiajaponine (7-O-methyl orientin-2″-O-arabinopiranoside)], for which the “antineoplastic activity of peaks and peak combinations” value is “only a weak antineoplastic activity”. The “concentration at which inhibitory effect of cellular proliferation was observed, converted” value (LoVo, corresponds to 1.7 mM) amounted to 1000 µg/mL. Also, where the note is “LoVo, tested at 0.017, 0.17 and 1.7 mM, FIG. 4”, the “concentration at which inhibitory effect of cellular proliferation was observed” value is recorded as 1.7 mM.
